# In PMC7558026, “Exploring and applying the substrate promiscuity of a C-glycosyltransferase in the chemo-enzymatic synthesis of bioactive C-glycosides” (Nature Communications, 2020):
# Several values for one entry are separate records, joined by “and”; a condition that tells them apart may be missing. Equal entries are not always repeated.
# B1: AbCGT (Aloe vera) (protein)
# chain: MSNSGRPHVALLPSAGMGHLTPFCRLAALLSSRGGGDLDVSFITAEPTVSLKEYLQIRDLLSSFPSIKSHRFKVPELSPSQFPSSPDPFFQQWESIRRCAHLLPPLLASATALIIDTASASAVLPVAKQLNIPAYILFTSSASMLSLVAHFPSHVISSTSPSAPLMSNILIPGLKHPVPAAWVPPPLHVPGHIFSTLTVDNGRCLPEADGVIINTFDALEPEVLAALNGGRVAHGLPRVFAVGPLVAPPPPQQMEETGGGDYPIAWLDRQRDKSVVYVSFGSRTAMSPEQIRELAAGLERSGCSFLWVIKTKKVDRDEEETDLGALLGEGYVERVKGRGLVVNGWVEQEEILRHRAVGGFVSHCGWNSVTEAAVAGVRVLCWPRMGDQRLNAEVVRRSGVGVWMEEWSWEAEGGVVGGEEIGRRVKEMMEDEGLRDSAERVAEEARVALGVGGTSSKEMEEFISRIMMGS
# Experiments:
# Format in all cases: biochemical, Aloe barbadensis
# AbCGT [1] = molecular target: T1, AbCGT (Aloe vera, UniProt A0A7G9P699); assay: Glycosyltransferase activity assay, purified AbCGT (wild type) with aglycon acceptors and UDP-Glc; settings: for conversion rates, O,N,S-glycosylation / conversion rates, di-C-glycosylation / conversion rates, mono-C-glycosylation: aglycon acceptor with UDP-Glc, pH 7.4, 30 °C, up to 12 h, Reaction-1 to -3
# AbCGT [2] = molecular target: T1, AbCGT; assay: Kinetic parameters of AbCGT (wild type); settings: acceptor varied, saturating UDP-Glc, pH 7.4, 30 °C
# Protocol: (§1) The reactions terminated by the addition of 200 μL of ice-cold methanol. Subsequently, samples were centrifuged at 15,000 × g for 30 min to collect the supernatant, and aliquots were analyzed by HPLC as described above. All experiments were performed in triplicate. The value of Km was calculated with the method of Lineweaver–Burk plot.
# AbCGT V183M = assay: Glycosyltransferase activity of AbCGT variant V183M; settings: pH 7.4, 30 °C, 12 h, Reaction-1 to -3
# Protocol: (§2) The reaction mixture contained 0.5 mM sugar donors (1.0 mM for di-glycosylation), 0.25 mM aglycons, 50 mM Tris-HCl (pH 7.4), and 50‒100 μg of purified AbCGT in a final volume of 100 μL. Due to the instability of some acceptors in the buffer of pH 11.0, the reactions were performed under the physiological conditions (pH 7.4, 30 °C) to compare the catalytic activities of AbGT27 with different substrates under the same conditions. The reactions were performed at 30 °C for up to 12 h and terminated by the addition of 200 μL of ice-cold methanol. Subsequently, samples were centrifuged at 15,000 × g for 30 min to collect the supernatant, and aliquots were analyzed by HPLC-UV/ESIMS. HPLC analysis was performed on a Shiseido CAPCELL PAK C18 MG III column (250 mm × 4.6 mm I.D., 5 μm, Shiseido Co., Ltd., Japan) at a flow rate of 1 mL min^‒1. The mobile phase was a gradient elution of solvents A (0.1% formic acid aqueous solution) and B (methanol). The gradient programs were used for the analysis of the reactions (Supplementary Table 6). The conversion rates of the enzyme reactions were calculated from peak areas of glycosylated products and substrates as analyzed by HPLC. To facilitate inferential statistical analysis, three parallel assays were routinely performed; the means ± SD from triplicate analyses are reported here. […]
# AbCGT V183Q = assay: Glycosyltransferase activity of AbCGT variant V183Q; settings: pH 7.4, 30 °C, 12 h, Reaction-1 to -3
# Protocol: as §2
# AbCGT V183R = assay: Glycosyltransferase activity of AbCGT variant V183R; settings: pH 7.4, 30 °C, 12 h, Reaction-1 to -3
# Protocol: as §2
# AbCGT V183L = assay: Glycosyltransferase activity of AbCGT variant V183L; settings: pH 7.4, 30 °C, 12 h, Reaction-1 to -3
# Protocol: as §2
# AbCGT V183E = molecular target: T2, AbCGT V183E (Aloe vera, UniProt A0A7G9P699, V183E); assay: Glycosyltransferase activity of AbCGT variant V183E
# T2 sequence (A0A7G9P699 1-470 V183E): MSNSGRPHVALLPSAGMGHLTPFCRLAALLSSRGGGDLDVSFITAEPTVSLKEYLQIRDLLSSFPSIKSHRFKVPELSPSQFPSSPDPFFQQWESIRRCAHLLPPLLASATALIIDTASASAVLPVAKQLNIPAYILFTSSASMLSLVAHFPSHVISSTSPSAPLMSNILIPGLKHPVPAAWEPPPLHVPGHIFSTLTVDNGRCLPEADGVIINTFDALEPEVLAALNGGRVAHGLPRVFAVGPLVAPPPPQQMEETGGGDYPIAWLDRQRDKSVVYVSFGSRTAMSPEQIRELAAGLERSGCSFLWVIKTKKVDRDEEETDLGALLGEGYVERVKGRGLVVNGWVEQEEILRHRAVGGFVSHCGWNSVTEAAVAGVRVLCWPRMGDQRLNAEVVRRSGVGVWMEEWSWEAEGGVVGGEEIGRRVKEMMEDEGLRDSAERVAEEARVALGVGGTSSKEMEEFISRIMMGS
# Summary of the method: (§3)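 Each purified AbCGT residue-183 mutant (50‒100 μg) was incubated with 0.25 mM aglycon and 0.5 mM sugar donor (1.0 mM for di-glycosylation) in 50 mM Tris-HCl pH 7.4 at 30 °C for up to 12 h. The reaction was quenched with cold methanol, and conversion rate was taken from HPLC peak areas of product versus substrate; triplicate means ± SD.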
# AbCGT V183C = assay: Glycosyltransferase activity of AbCGT variant V183C; settings: pH 7.4, 30 °C, 12 h, Reaction-1 to -3
# Protocol: as §2
# AbCGT V183N = assay: Glycosyltransferase activity of AbCGT variant V183N; settings: pH 7.4, 30 °C, 12 h, Reaction-1 to -3
# Protocol: as §2
# AbCGT V183D = molecular target: T3, AbCGT V183D (Aloe vera, UniProt A0A7G9P699, V183D); assay: Glycosyltransferase activity of AbCGT variant V183D
# T3 sequence (A0A7G9P699 1-470 V183D): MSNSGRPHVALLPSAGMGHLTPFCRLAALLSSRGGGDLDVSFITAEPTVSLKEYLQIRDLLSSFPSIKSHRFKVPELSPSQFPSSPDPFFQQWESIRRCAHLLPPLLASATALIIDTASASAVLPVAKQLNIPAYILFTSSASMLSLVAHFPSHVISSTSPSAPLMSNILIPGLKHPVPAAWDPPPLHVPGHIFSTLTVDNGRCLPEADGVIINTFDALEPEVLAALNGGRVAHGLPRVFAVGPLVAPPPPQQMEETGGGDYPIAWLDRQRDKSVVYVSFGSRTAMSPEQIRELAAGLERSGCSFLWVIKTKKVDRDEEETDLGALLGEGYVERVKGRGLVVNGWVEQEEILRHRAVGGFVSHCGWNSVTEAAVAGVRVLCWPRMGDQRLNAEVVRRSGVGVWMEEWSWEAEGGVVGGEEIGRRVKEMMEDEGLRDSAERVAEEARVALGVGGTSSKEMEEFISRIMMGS
# Summary of the method: as §3
# AbCGT [3] = molecular target: T1, AbCGT; assay: Glycosyltransferase activity assay, purified AbCGT (wild type) with aglycon acceptors and UDP-Glc; settings: pH 7.4, 30 °C, 12 h, Reaction-1 to -3
# [4] = substrate: O=C1C[C@@](O)(c2ccc(O)cc2)Oc2cc(O)cc(O)c21; assay: Kinetic parameters of AbCGT (wild type); settings: other: acceptor varied, UDP-Glc as donor, pH 7.4, 30 °C
# Protocol: as §1
# [5] = substrate: O=C(CCc1ccc(O)cc1)c1c(O)cc(O)cc1O; assay: Kinetic parameters of AbCGT (wild type); settings: other: acceptor varied, UDP-Glc as donor, pH 7.4, 30 °C
# Protocol: as §1
# [6] = substrate: CC(=O)c1c(O)cc(O)cc1O; assay: Kinetic parameters of AbCGT (wild type); settings: other: acceptor varied, UDP-Glc as donor, pH 7.4, 30 °C
# Protocol: as §1
# [7] = V183E, pH 7.4, 30 °C, 12 h, Reaction-1 to -3
# [8] = V183D, pH 7.4, 30 °C, 12 h, Reaction-1 to -3
molecule,measurement,setting,value
"CC(=O)c1c(O)cc(O)cc1O [Compound 11, phloracetophene]","conversion rates, O,N,S-glycosylation",AbCGT [1],0%
same,"conversion rates, di-C-glycosylation",AbCGT [1],100%
same,"conversion rates, mono-C-glycosylation",AbCGT [1],0%
same,Kcat,AbCGT [2],2.4 s⁻¹
"O=C1CC(O)(c2ccc(O)cc2)Oc2cc(O)cc(O)c21 (stereo not drawn) [Compound 23, 2-hydroxynaringenin]","conversion rates of 2-hydroxynaringenin, C-glycosylation",AbCGT V183M,80.2% and 82.7% and 79.5%
same,"conversion rates of 2-hydroxynaringenin, O-glycosylation",AbCGT V183M,19.8% and 17.3% and 20.5%
same,"conversion rates of 2-hydroxynaringenin, C-glycosylation",AbCGT V183Q,88.9% and 88.2%
same,"conversion rates of 2-hydroxynaringenin, O-glycosylation",AbCGT V183Q,11.1% and 11.8%
same,"conversion rates of 2-hydroxynaringenin, C-glycosylation",AbCGT V183R,64.9% and 75.1% and 70.5%
same,"conversion rates of 2-hydroxynaringenin, O-glycosylation",AbCGT V183R,3.4% and 2.7% and 2.9%
same,"conversion rates of 2-hydroxynaringenin, C-glycosylation",AbCGT V183L,83% and 80% and 76.5%
same,"conversion rates of 2-hydroxynaringenin, O-glycosylation",AbCGT V183L,17% and 20% and 23.5%
same,"conversion rates of 2-hydroxynaringenin, C-glycosylation",AbCGT V183E; [7],99.8% and 99.6%
same,"conversion rates of 2-hydroxynaringenin, O-glycosylation",AbCGT V183E; [7],0.2% and 0.4%
same,V183E/yield of O-glycoside(%),AbCGT V183E; reaction-1,0% and 0.5%
same,V183E/yield of O-glycoside(%),AbCGT V183E; reaction-2,0% and 0.3%
same,V183E/yield of O-glycoside(%),AbCGT V183E; reaction-3,0% and 0.8%
same,"conversion rates of 2-hydroxynaringenin, C-glycosylation",AbCGT V183C,85.3% and 83.5%
same,"conversion rates of 2-hydroxynaringenin, O-glycosylation",AbCGT V183C,14.7% and 16.5%
same,"conversion rates of 2-hydroxynaringenin, C-glycosylation",AbCGT V183N,95.8% and 95.1% and 94.3%
same,"conversion rates of 2-hydroxynaringenin, O-glycosylation",AbCGT V183N,4.2% and 4.9% and 5.7%
same,"conversion rates, O,N,S-glycosylation",AbCGT [1],16.7% and 14.4% and 17.2%
same,"conversion rates, di-C-glycosylation",AbCGT [1],0%
same,"conversion rates, mono-C-glycosylation",AbCGT [1],83.3% and 85.6% and 82.8%
same,WT/yield of C-glycoside(%),AbCGT [1]; reaction-1,82%
same,WT/yield of O-glycoside(%),AbCGT [1]; reaction-1,18.7%
same,WT/yield of C-glycoside(%),AbCGT [1]; reaction-2,84.9%
same,WT/yield of O-glycoside(%),AbCGT [1]; reaction-2,16.2%
same,WT/yield of C-glycoside(%),AbCGT [1]; reaction-3,83.2%
same,WT/yield of O-glycoside(%),AbCGT [1]; reaction-3,17.8%
same,"conversion rates of 2-hydroxynaringenin, C-glycosylation",AbCGT V183D; [8],99.7% and 99.5%
same,"conversion rates of 2-hydroxynaringenin, O-glycosylation",AbCGT V183D; [8],0.3% and 0.5%
same,V183D/yield of C-glycoside(%),AbCGT V183D; reaction-1,99.3%
same,V183D/yield of O-glycoside(%),AbCGT V183D; reaction-1,0.7%
same,V183D/yield of C-glycoside(%),AbCGT V183D; reaction-2,99.5%
same,V183D/yield of O-glycoside(%),AbCGT V183D; reaction-2,0.5%
same,V183D/yield of C-glycoside(%),AbCGT V183D; reaction-3,99.2%
same,V183D/yield of O-glycoside(%),AbCGT V183D; reaction-3,0.8%
same,"conversion rates of 2-hydroxynaringenin, C-glycosylation",AbCGT [3],85.9% and 83.4% and 85%
same,"conversion rates of 2-hydroxynaringenin, O-glycosylation",AbCGT [3],14.1% and 16.6% and 15%
B1,Km,[4],414.5 ± 23.7 µM
same,Km,[5],146.0 ± 10.2 µM
same,kcat,[5],2 ± 0.138 s⁻¹
same,Km,[6],176.2 ± 11.7 µM
same,kcat,[6],2.4 ± 0.152 s⁻¹
